Data published in US20250115571A1, “OXOPIPERAZINE DERIVATIVES” (Inthera Bioscience AG, priority 2017, published 2025).

Legend:
[1] = tested on: androgen receptor (AR)-target genes KLK3, TMPRSS2, SLC45A3 in LNCaP cells; assay: P300/CBP-androgen receptor target gene expression regulation in prostate cancer cells (RT-qPCR); assay type: cell-based, human; conditions: 300 nM added concomitantly to DHT (100 nM, 4 hours)
Experimental: LNCaP prostate cancer cells (CLS GmbH) were seeded at a density of 15′000 cells/cm^2 in 48-well cell culture-treated plates and cultured for 72 hours in RPMI1640 medium (Sigma-Aldrich) supplemented with Glutamax I (ThermoFisher-Gibco), “Antibiotic and Antimycotic Solution” (Sigma-Aldrich) and 1% fetal calf serum (Sigma-Aldrich). AR-driven gene expression response was induced by addition of the androgen signaling agonist dihydrotestosterone (Selleck Chemicals, Houston, TX, USA) to a concentration of 100 nanomol/Lt for 4 hours. Cells were treated with Compound 258 during dihydrotestosterone induction. Culture medium was carefully removed, cells were washed 1× with Phosphate-Buffered Saline (Sigma-Aldrich) and lysed using the SingleShot Cell Lysis Kit (Bio-Rad, Hercules, CA, USA). Gene expression of well-known AR-responsive genes prostate-specific antigen (KLK3, ThermoFisher), transmembrane serine protease 2 (TMPRSS2, ThermoFisher) and prostein (SLC45A3, ThermoFisher) was assessed by quantitative PCR after reverse transcription of the LNCaP RNA with the Applied Biosystem High-Capacity cDNA Reverse Transcription Kit (ThermoFisher). Gene expression was normalized against four reference genes (RPLP0, GUSB, GAPDH and ACTB, all probe detection systems were from Bio-Rad).

BT474 = assay: 5-day cell proliferation assay (CTG); assay type: cell-based; conditions: Homo sapiens, BT-474, 120 h, BT474, Breast
Method in brief: (§1)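 Five-day exposure of seeded cells to compound, at 37 °C, followed by CellTiter-Glo ATP luminescence readout. Values are GI50 relative to untreated controls, obtained by nonlinear sigmoidal regression.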

MCF7 = assay: 5-day cell proliferation assay (CTG); assay type: cell-based; conditions: Homo sapiens, 120 h, MCF7, Breast
Method in brief: as §1

PANC-1 = assay: 5-day cell proliferation assay (CTG); assay type: cell-based; conditions: Homo sapiens, 120 h, PANC-1, Pancreas
Method in brief: as §1

IM95m = assay: 5-day cell proliferation assay (CTG); assay type: cell-based; conditions: Homo sapiens, 120 h, Stomach/Gastric
Method in brief: as §1

K562 = assay: 5-day cell proliferation assay (CTG); assay type: cell-based; conditions: Homo sapiens, 120 h, K562, Leukemia
Method in brief: as §1

SW480 = assay: 5-day cell proliferation assay (CTG); assay type: cell-based; conditions: Homo sapiens, 120 h, SW480, Colorectal
Method in brief: as §1

SiHa = assay: 5-day cell proliferation assay (CTG); assay type: cell-based; conditions: Homo sapiens, 120 h, Cervix
Method in brief: as §1

KARPAS-422 = assay: 5-day cell proliferation assay (CTG); assay type: cell-based; conditions: Homo sapiens, 120 h, KARPAS-422, Lymphoma
Method in brief: as §1

KARPAS-299 = assay: 5-day cell proliferation assay (CTG); assay type: cell-based; conditions: Homo sapiens, 120 h, KARPAS-299, Lymphoma
Method in brief: as §1

AU565 = assay: 5-day cell proliferation assay (CTG); assay type: cell-based; conditions: Homo sapiens, 120 h, AU565, Breast
Method in brief: as §1

U937 = assay: 5-day cell proliferation assay (CTG); assay type: cell-based; conditions: Homo sapiens, U-937, 120 h, U937, Leukemia
Method in brief: as §1

WM-266-4 = assay: 5-day cell proliferation assay (CTG); assay type: cell-based; conditions: Homo sapiens, 120 h, WM-266-4, Skin
Method in brief: as §1

LNCaP-FGC = assay: 5-day cell proliferation assay (CTG); assay type: cell-based; conditions: Homo sapiens, 120 h, Prostate
Method in brief: as §1

Q: Which results are given for CC(C)C[C@@H]1NCCN([C@@H](CC(C)C)C(=O)N2CCC3(C[C@@H]2C)OCC(CN2CCCC2)CO3)C1=O (stereo partly drawn) [Compound 258, (3S)-1-[(2S)-4-methyl-1-oxo-1-[(3s,6s,8S)-8-methyl-3-(pyrrolidin-1-ylmethyl)-1,5-dioxa-9-azaspiro[5.5]undec-an-9-yl]pentan-2-yl]-3-(2-methylpropyl)piper-azin-2-one (^≠), isomer Z]?
A: repression of PSA (KLK3) gene expression stimulation [1]: complete repression; repression of SLC45A3 gene expression stimulation [1]: 80%; repression of TMPRSS2 gene expression stimulation [1]: 85%; GI50 (BT474): 72 nM; GI50 (MCF7): 55 nM; GI50 (PANC-1): 22 nM; GI50 (IM95m): 4 nM; GI50 (K562): 17 nM; GI50 (SW480): 22 nM; GI50 (SiHa): 52 nM; GI50 (KARPAS-422): 48 nM; GI50 (KARPAS-299): 5 nM; GI50 (AU565): 3 nM; GI50 (U937): 22 nM; GI50 (WM-266-4): 41 nM; GI50 (LNCaP-FGC): 2 nM
